This is an account of results in patent publication US4663327A, “1-heteroaryl-4-aryl-pyrazolin-5-ones” (priority 1984, dated 1987).

≈ marks a conversion by molar mass, not a printed value.

One experiment has as its system Alternaria tenuis. The experiment in a line: MIC on fungi in agar. To be noted: Alternaria alternata, 336 h.
The next experiment has as its system Aspergillus niger. The experiment in a line: MIC on fungi in agar. The settings on record: 336 h.
A further experiment has as its system Aureobasidium pullulans. The experiment in a line: MIC on fungi in agar. To be noted: 336 h.
The subject of the next experiment is Chaetomium globosum. The experiment in a line: MIC on fungi in agar. The settings on record: 336 h.
The subject of the next experiment is Coniophora puteana. The experiment in a line: MIC on fungi in agar. The settings on record: 336 h.
For another experiment, the system named is Lentinus tigrinus. The experiment in a line: MIC on fungi in agar. To be noted: 336 h.
Another experiment has as its system Penicillium glaucum. The experiment in a line: MIC on fungi in agar. The settings on record: 336 h.
The subject of another experiment is Polyporus versicolor. The experiment in a line: MIC on fungi in agar. The settings on record: Trametes versicolor, 336 h.
For a further experiment, the system named is Sclerophoma pityophila. The experiment in a line: MIC on fungi in agar. The settings on record: Sydowia polyspora, 336 h.
A further experiment relates to Trichoderma viride. The experiment in a line: MIC on fungi in agar. To be noted: 336 h.
For another experiment, the system named is slime organisms. The experiment in a line: Action against slime organisms in Allen's nutrient solution (MIC). The settings on record: 504 h.
The subject of another experiment is Botrytis cinerea. The experiment in a line: Botrytis test (BEAN)/protective. The class given is in vivo. To be noted: sprayed, infected spots on leaves evaluated 3 days after inoculation. On the procedure: Botrytis test (BEAN)/protective Solvent: 4.7 parts by weight of acetone Emulsifier: 0.3 parts by weight alkyl aryl polyglycol ether To produce a suitable preparation of active compound, 1 pat by weight of active compound is mixed with the stated amounts of solvent and emulsifier, and the concentrate is diluted with water to the desired concentration. To test for protective activity, young plants are sprayed with the preparation of active compound until dripping wet. After the spray coating has dried on, 2 small pieces of agar covered with Botrytis cinerea are placed on each leaf. The inoculated plants are placed in a darkened humidity chamber at 20° C. 3 days after the inoculation, the size of the infected spots on the leaves is evaluated.

The test system of a further experiment is Pyricularia oryzae. The format is in vivo. To be noted: rice, soil watered 7 days before inoculation, disease infestation 4 days after inoculation.
Another experiment relates to Cochliobolus sativus. The experiment in a line: Cochliobolus sativus test (barley)/protective. The format is in vivo. To be noted: sprayed, evaluation 7 days after inoculation. The procedure: Cochliobolus sativus test (barley)/protective Solvent: 100 parts by weight of dimethylformamide Emulsifier: 0.25 parts by weight of alkylaryl polyglycol ether To produce a suitable preparation of active compound, 1 part by weight of active compound is mixed with the stated amounts of solvent and emulsifier, and the concentrate is diluted with water to the desired concentration. To test for protective activity, young plants are sprayed with the preparation of active compound until dew-moist. After the spray coating has dried on, the plants are sprayed with a conidia suspension of Cochliobolus sativus. The plants remain in an incubation cabinet for 48 hours at 20° C. and 100% relative atmospheric humidity. The plants are placed in a greenhouse at a temperature of about 20° C. and a relative atmospheric humidity of about 80%. Evaluation is carried out 7 days after the inoculation.

In the next experiment the test system is Drechslera graminea. The experiment in a line: Drechslera graminea test (barley)/seed treatment. The format is in vivo, Drechslera graminea (syn. Helminthosporium gramineum). The settings on record: seed dry dressing, about 3 weeks after sowing. On the procedure: Drechslera […] (barley)/seed treatment (syn. Helminthosporium gramineum) The active compounds are used as dry dressings. These are prepared by extending the paticular active compound with a ground mineral to give a finely pulverulent mixture, which ensures uniform distribution on the seed surface. To apply the dressing, the infected seed is shaken with the dressing in a closed glass flask for 3 minutes. The seed is embedded in sieved, moist standard soil and is exposed to a temperature of 4° C. in closed Petri dishes in a refrigerator for 10 days. Germination of the barley, and possibly also of the fungus spores, is thereby initiated. 2 batches of 50 grains of the pregerminated barley are subsequently sown 3 cm deep in standard soil and are cultivated in a greenhouse at a temperature of about 18° C., in seedboxes which are exposed to light for 15 hours daily. About 3 weeks after sowing, the plants are evaluated for symptons of stripe disease.

Experimental for Alternaria tenuis: (§1) After storage for 2 weeks at 28° C. and 60 to 70% relative atmospheric humidity, the MIC is determined.
Experimental for Aspergillus niger: as §1
Experimental for Aureobasidium pullulans: as §1
Experimental for Chaetomium globosum: as §1
Experimental for Coniophora puteana: as §1
Experimental for Lentinus tigrinus: as §1
Experimental for Penicillium glaucum: as §1
Experimental for Polyporus versicolor: as §1
Experimental for Sclerophoma pityophila: as §1
Experimental for Trichoderma viride: as §1
Experimental for slime organisms: Substances according to the invention, dissolved in a small amount of acetone, are used in concentrations of, in each case, 0.1 to 100 mg/l in Allen's nutrient solution (Arch. Mikrobiol. 17, 34 to 53 (1952)), which contains, in 4 l of sterile water, 0.2 g of ammonium chloride, 4.0 g of sodium nitrate, 1.0 g of dipotassium hydrogen phosphate, 0.2 g of calcium chloride, 2.05 g of magnesium sulphate, 0.02 g of iron chloride and 1% of caprolactam. Shortly beforehand, the nutrient solution is infected with slime organisms (approx. 10^6 organisms/ml) which have been isolated from the spinning water circulations used in the manufacture of polyamide.

By MIC is commonly meant the lowest concentration found to suppress growth. A high value points to weaker potency. In the case of `O=c1c(-c2ccccc2)c[nH]n1-c1ccccn1` [Example 4, 1-pyrid-2-yl-4-phenyl-pyrazolin-5-one], the MIC was determined as 50 µg/mL (≈ 211 µM) with Alternaria tenuis; 7.5 µg/mL (≈ 31.6 µM) with Aspergillus niger; 100 µg/mL (≈ 421 µM) in the experiment on Aureobasidium pullulans; 1.5 µg/mL (≈ 6.32 µM) against Chaetomium globosum; 5 µg/mL (≈ 21.1 µM) against Coniophora puteana; 75 µg/mL (≈ 316 µM) with Lentinus tigrinus. For the same compound, the MIC was 10 µg/mL (≈ 42.1 µM) with Penicillium glaucum; 35 µg/mL (≈ 148 µM) against Polyporus versicolor; 10 µg/mL (≈ 42.1 µM) against Sclerophoma pityophila; 200 µg/mL (≈ 843 µM) with Trichoderma viride; 15 µg/mL (≈ 63.2 µM) against slime organisms.
As for `Cc1ccccc1-c1c[nH]n(-c2ccccn2)c1=O` [Example 21], the protective activity result in the experiment on Botrytis cinerea and with Cochliobolus sativus was “clearly superior activity compared with the prior art” in each case. In the experiment on Pyricularia oryzae, the systemic activity result is recorded as “clearly superior activity compared with the prior art”. The “activity, symptoms of stripe disease” value in the experiment on Drechslera graminea is listed as “clearly superior activity compared with the prior art”. Besides, the MIC amounted to 10 µg/mL (≈ 39.8 µM) in the experiment on Alternaria tenuis; 7.5 µg/mL (≈ 29.8 µM) in the experiment with Aspergillus niger; 35 µg/mL (≈ 139 µM) in the experiment on Aureobasidium pullulans; 0.75 µg/mL (≈ 2.98 µM) with Chaetomium globosum; 5 µg/mL (≈ 19.9 µM) in the experiment on Coniophora puteana; 50 µg/mL (≈ 199 µM) in the experiment with Lentinus tigrinus. Further, the MIC amounted to 7.5 µg/mL (≈ 29.8 µM) against Penicillium glaucum, 7.5 µg/mL (≈ 29.8 µM) against Polyporus versicolor, 35 µg/mL (≈ 139 µM) with Sclerophoma pityophila and 50 µg/mL (≈ 199 µM) against Trichoderma viride.
With `Cc1ccc(-c2c[nH]n(-c3ccccn3)c2=O)cc1` [Example 23], the MIC in the experiment on Alternaria tenuis stood at 75 µg/mL (≈ 298 µM); against Aspergillus niger it was 7.5 µg/mL (≈ 29.8 µM); in the experiment on Aureobasidium pullulans, 50 µg/mL (≈ 199 µM); with Chaetomium globosum, 0.5 µg/mL (≈ 1.99 µM); with Coniophora puteana it was 35 µg/mL (≈ 139 µM); against Lentinus tigrinus, 75 µg/mL (≈ 298 µM). Moreover, the minimum inhibitory concentration (MIC) was found to be 5 µg/mL (≈ 19.9 µM) in the experiment with Penicillium glaucum; 3.5 µg/mL (≈ 13.9 µM) against Polyporus versicolor; 20 µg/mL (≈ 79.6 µM) against Sclerophoma pityophila; 1000 µg/mL (≈ 3980 µM) against Trichoderma viride; 7.5 µg/mL (≈ 29.8 µM) against slime organisms.
In the case of `O=c1c(-c2ccc(F)cc2)c[nH]n1-c1ncccn1` [Example 83], the MIC stood at 50 µg/mL (≈ 195 µM) with Alternaria tenuis; 15 µg/mL (≈ 58.5 µM) against Aspergillus niger; 50 µg/mL (≈ 195 µM) with Aureobasidium pullulans; 3.5 µg/mL (≈ 13.7 µM) in the experiment with Chaetomium globosum; 5 µg/mL (≈ 19.5 µM) against Coniophora puteana; 50 µg/mL (≈ 195 µM) against Lentinus tigrinus. The MIC in the experiment on Penicillium glaucum amounted to 20 µg/mL (≈ 78.1 µM); in the experiment on Polyporus versicolor, 35 µg/mL (≈ 137 µM); with Sclerophoma pityophila, 5 µg/mL (≈ 19.5 µM); with Trichoderma viride, 75 µg/mL (≈ 293 µM); against slime organisms, 35 µg/mL (≈ 137 µM).
